# Measurements: patent publication US20260262643A1, “HERBICIDAL BENZOXAZINES” (FMC CORPORATION, priority 2022, published 2026)
# Tests used:
# ducksalad = test: Test D flooded paddy test; format: in vivo, Heteranthera limosa; settings: 250 g ai/ha, applied to paddy water, visual rating after 13 to 14 days, scale 0 to 100 (0 no effect, 100 complete control)
# How it was run: (§1)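 At the 2-leaf stage, floodwater 3 cm deep received the test compound; that depth persisted throughout. Plants scored visually 13 to 14 days on, 0 (no effect) to 100 (complete control), dash indicating no result.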
# galium = test: Test C postemergence; format: in vivo, Galium aparine; settings: 10 days, 0 to 100 scale (0 no effect, 100 complete control)
# How it was run: (§2)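 Test material, in non-phytotoxic solvent with surfactant, was sprayed on the soil directly after seeding (preemergence) or on young plants of 2–10 cm with one to two leaves (postemergence). Greenhouse, 10 days; 0–100 visual control scale.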
# sedge, umbrella = test: Test D flooded paddy test; format: in vivo, Cyperus difformis; settings: 250 g ai/ha, applied to paddy water, visual rating after 13 to 14 days, scale 0 to 100 (0 no effect, 100 complete control)
# How it was run: as §1
# soybean [1] = test: Test C preemergence; format: in vivo, Glycine max
# How it was run: as §2
# oat, wild [2] = test: Test C postemergence; format: in vivo, Avena fatua; settings: 10 days, 0 to 100 scale (0 no effect, 100 complete control)
# How it was run: as §2
# ragweed [3] = test: Test C preemergence; format: in vivo, Ambrosia artemisiifolia
# How it was run: as §2
# corn [4] = test: Test C preemergence; format: in vivo, Zea mays
# How it was run: as §2
# blackgrass [5] = test: Test C postemergence; format: in vivo, Alopecurus myosuroides; settings: 10 days, 0 to 100 scale (0 no effect, 100 complete control)
# How it was run: as §2
# barnyardgrass [6] = test: Test C preemergence; format: in vivo, Echinochloa crusgalli
# How it was run: as §2
# corn [7] = test: Test C postemergence; format: in vivo, Zea mays; settings: 10 days, 0 to 100 scale (0 no effect, 100 complete control)
# How it was run: as §2
# wheat [8] = test: Test C preemergence; format: in vivo, Triticum aestivum
# How it was run: as §2
# soybean [9] = test: Test C postemergence; format: in vivo, Glycine max; settings: 10 days, 0 to 100 scale (0 no effect, 100 complete control)
# How it was run: as §2
# barnyardgrass [10] = test: Test C postemergence; format: in vivo, Echinochloa crusgalli; settings: 10 days, 0 to 100 scale (0 no effect, 100 complete control)
# How it was run: as §2
# foxtail, giant [11] = test: Test C postemergence; format: in vivo, Setaria faberi; settings: 10 days, 0 to 100 scale (0 no effect, 100 complete control)
# How it was run: as §2
# rice = test: Test D flooded paddy test; format: in vivo, Oryza sativa; settings: 250 g ai/ha, applied to paddy water, visual rating after 13 to 14 days, scale 0 to 100 (0 no effect, 100 complete control)
# How it was run: as §1
# barnyardgrass [12] = test: Test D flooded paddy test; format: in vivo, Echinochloa crus-galli; settings: 250 g ai/ha, applied to paddy water, visual rating after 13 to 14 days, scale 0 to 100 (0 no effect, 100 complete control)
# How it was run: as §1
# ryegrass, Italian [13] = test: Test C postemergence; format: in vivo, Lolium multiflorum; settings: 10 days, 0 to 100 scale (0 no effect, 100 complete control)
# How it was run: as §2
# kochia [14] = test: Test C preemergence; format: in vivo, Bassia scoparia
# How it was run: as §2
# oat, wild [15] = test: Test C preemergence; format: in vivo, Avena fatua
# How it was run: as §2
# foxtail, giant [16] = test: Test C preemergence; format: in vivo, Setaria faberi
# How it was run: as §2
# pigweed, palmer [17] = test: Test C postemergence; format: in vivo, Amaranthus palmeri; settings: 10 days, 0 to 100 scale (0 no effect, 100 complete control)
# How it was run: as §2
# wheat [18] = test: Test C postemergence; format: in vivo, Triticum aestivum; settings: 10 days, 0 to 100 scale (0 no effect, 100 complete control)
# How it was run: as §2
# blackgrass [19] = test: Test C preemergence; format: in vivo, Alopecurus myosuroides
# How it was run: as §2
# ryegrass, Italian [20] = test: Test C preemergence; format: in vivo, Lolium multiflorum
# How it was run: as §2
# kochia [21] = test: Test C postemergence; format: in vivo, Bassia scoparia; settings: 10 days, 0 to 100 scale (0 no effect, 100 complete control)
# How it was run: as §2
# ragweed [22] = test: Test C postemergence; format: in vivo, Ambrosia artemisiifolia; settings: 10 days, 0 to 100 scale (0 no effect, 100 complete control)
# How it was run: as §2
# horseweed = test: Test C postemergence; format: in vivo, Erigeron canadensis; settings: 10 days, 0 to 100 scale (0 no effect, 100 complete control)
# How it was run: as §2
# pigweed, palmer [23] = test: Test C preemergence; format: in vivo, Amaranthus palmeri
# How it was run: as §2
# [24] = 500 g ai/ha, preemergence, 0 to 100 scale (0 no effect, 100 complete control)
# [25] = Preemergence, 125 g ai/ha, 0 to 100 scale, 0 no effect, 100 complete control
smiles,measurement,setting,value
Cc1cccc2c1OC(C(F)(F)F)CN2C(=O)c1ccnc(-n2cnc(C(C)C)n2)c1 (stereo not shown) [Compound 327],"Plant response rating, Ducksalad (Flood)",ducksalad,25
same,"Plant response rating, Galium","galium; 500 g ai/ha, postemergence",100
same,"Plant response rating, Galium","galium; Postemergence, 125 g ai/ha",70
same,"Plant response rating, Sedge, Umbrella (Flood)","sedge, umbrella",70
same,Soybean plant response rating,soybean [1]; [24],100
same,"Plant response rating, Soybean",soybean [1]; [25],100
same,"Plant response rating, Oat, Wild","oat, wild [2]; 500 g ai/ha, postemergence",90
same,"Plant response rating, Oat, Wild","oat, wild [2]; Postemergence, 125 g ai/ha",40
same,Ragweed plant response rating,ragweed [3]; [24],30
same,"Plant response rating, Ragweed",ragweed [3]; [25],0
same,Corn plant response rating,corn [4]; [24],70
same,"Plant response rating, Corn",corn [4]; [25],20
same,"Plant response rating, Blackgrass","blackgrass [5]; 500 g ai/ha, postemergence",90
same,"Plant response rating, Blackgrass","blackgrass [5]; Postemergence, 125 g ai/ha",30
same,Barnyardgrass plant response rating,barnyardgrass [6]; [24],90
same,"Plant response rating, Barnyardgrass",barnyardgrass [6]; [25],50
same,"Plant response rating, Corn","corn [7]; 500 g ai/ha, postemergence",90
same,"Plant response rating, Corn","corn [7]; Postemergence, 125 g ai/ha",70
same,Wheat plant response rating,wheat [8]; [24],90
same,"Plant response rating, Wheat",wheat [8]; [25],40
same,"Plant response rating, Soybean","soybean [9]; 500 g ai/ha, postemergence",100
same,"Plant response rating, Soybean","soybean [9]; Postemergence, 125 g ai/ha",100
same,"Plant response rating, Barnyardgrass","barnyardgrass [10]; 500 g ai/ha, postemergence",90
same,"Plant response rating, Barnyardgrass","barnyardgrass [10]; Postemergence, 125 g ai/ha",40
same,"Plant response rating, Foxtail, Giant","foxtail, giant [11]; 500 g ai/ha, postemergence",90
same,"Plant response rating, Foxtail, Giant","foxtail, giant [11]; Postemergence, 125 g ai/ha",60
same,"Plant response rating, Rice (Flood)",rice,0
same,"Plant response rating, Barnyardgrass (Flood)",barnyardgrass [12],15
same,"Plant response rating, Ryegrass, Italian","ryegrass, Italian [13]; 500 g ai/ha, postemergence",80
same,"Plant response rating, Ryegrass, Italian","ryegrass, Italian [13]; Postemergence, 125 g ai/ha",40
same,Kochia plant response rating,kochia [14]; [24],90
same,"Plant response rating, Kochia",kochia [14]; [25],20
same,"Oat, Wild plant response rating","oat, wild [15]; [24]",70
same,"Plant response rating, Oat, Wild","oat, wild [15]; [25]",20
same,"Foxtail, Giant plant response rating","foxtail, giant [16]; [24]",100
same,"Plant response rating, Foxtail, Giant","foxtail, giant [16]; [25]",100
same,"Plant response rating, Pigweed, Palmer","pigweed, palmer [17]; 500 g ai/ha, postemergence",50
same,"Plant response rating, Pigweed, Palmer","pigweed, palmer [17]; Postemergence, 125 g ai/ha",30
same,"Plant response rating, Wheat","wheat [18]; 500 g ai/ha, postemergence",30
same,"Plant response rating, Wheat","wheat [18]; Postemergence, 125 g ai/ha",20
same,Blackgrass plant response rating,blackgrass [19]; [24],90
same,"Plant response rating, Blackgrass",blackgrass [19]; [25],90
same,"Ryegrass, Italian plant response rating","ryegrass, Italian [20]; [24]",100
same,"Plant response rating, Ryegrass, Italian","ryegrass, Italian [20]; [25]",90
same,"Plant response rating, Kochia","kochia [21]; 500 g ai/ha, postemergence",90
same,"Plant response rating, Kochia","kochia [21]; Postemergence, 125 g ai/ha",40
same,"Plant response rating, Ragweed","ragweed [22]; 500 g ai/ha, postemergence",40
same,"Plant response rating, Ragweed","ragweed [22]; Postemergence, 125 g ai/ha",30
same,"Plant response rating, Horseweed","horseweed; 500 g ai/ha, postemergence",60
same,"Plant response rating, Horseweed","horseweed; Postemergence, 125 g ai/ha",0
same,"Pigweed, Palmer plant response rating","pigweed, palmer [23]; [24]",90
same,"Plant response rating, Pigweed, Palmer","pigweed, palmer [23]; [25]",50
